{"source": "patent US12433861B2", "about": "“Compositions and methods for treating reperfusion injury or hemorrhage after recanalization therapy” (GNT Pharma Co., Ltd., priority 2020, dated 2025)", "key": {"[1]": {"tested_on": "acute ischemic stroke patients", "details": "cited from earlier work"}, "adult rats": {"tested_on": "adult rats", "assay": "Abnormal behavior in adult rats after single dose", "details": "for % of rats showing abnormal behavior: Abnormal body position lying on side / % of rats showing abnormal behavior: Ataxia / % of rats showing abnormal behavior: Clenched paws / % of rats showing abnormal behavior: Decreased activity / % of rats showing abnormal behavior: Increased salivation / % of rats showing abnormal behavior: Repetitive jaw chewing / Number of rats showing abnormal behavior: Abnormal body position lying on side / Number of rats showing abnormal behavior: Ataxia / Number of rats showing abnormal behavior: Clenched paws / Number of rats showing abnormal behavior: Decreased activity / Number of rats showing abnormal behavior: Increased salivation / Number of rats showing abnormal behavior: Repetitive jaw chewing: 8 rats"}, "ischemic stroke patients": {"tested_on": "ischemic stroke patients", "details": "cited from earlier work"}, "healthy volunteers": {"tested_on": "healthy volunteers", "details": "cited from earlier work"}, "[2]": {"details": "ischemic stroke patients, selfotel (n = 281)"}}, "note": "“Also recorded” adds a separate entry of the source.", "data": [{"compound": "rt-PA: recombinant tissue plasminogen activator, intravenous thrombolytic drug", "values": [{"measurement": "increase of intracranial hemorrhagic complication", "setting": "[1]; intravenous administration, acute ischemic stroke", "result": "~6.4", "unit": "%"}, {"measurement": "cerebral arterial recanalization", "setting": "[1]; intravenous, depending upon size and types of the occluded vessel", "result": "4-32%"}]}, {"compound": "C[C@]12N[C@H](Cc3ccccc31)c1ccccc12", "note": "[MK-801]", "values": [{"measurement": "% of rats showing abnormal behavior: Abnormal body position lying on side", "setting": "adult rats; 1 mg/kg (IP), female", "result": 25, "unit": "%"}, {"measurement": "% of rats showing abnormal behavior: Ataxia", "setting": "adult rats; 1 mg/kg (IP), female", "result": 75, "unit": "%"}, {"measurement": "% of rats showing abnormal behavior: Clenched paws", "setting": "adult rats; 1 mg/kg (IP), female", "result": 88, "unit": "%"}, {"measurement": "% of rats showing abnormal behavior: Decreased activity", "setting": "adult rats; 1 mg/kg (IP), female", "result": 100, "unit": "%"}, {"measurement": "% of rats showing abnormal behavior: Increased salivation", "setting": "adult rats; 1 mg/kg (IP), female", "result": 25, "unit": "%"}, {"measurement": "% of rats showing abnormal behavior: Repetitive jaw chewing", "setting": "adult rats; 1 mg/kg (IP), female", "result": 50, "unit": "%"}, {"measurement": "Number of rats showing abnormal behavior: Abnormal body position lying on side", "setting": "adult rats; 1 mg/kg (IP), female", "result": 2}, {"measurement": "Number of rats showing abnormal behavior: Ataxia", "setting": "adult rats; 1 mg/kg (IP), female", "result": 6}, {"measurement": "Number of rats showing abnormal behavior: Clenched paws", "setting": "adult rats; 1 mg/kg (IP), female", "result": 7}, {"measurement": "Number of rats showing abnormal behavior: Decreased activity", "setting": "adult rats; 1 mg/kg (IP), female", "result": 8}, {"measurement": "Number of rats showing abnormal behavior: Increased salivation", "setting": "adult rats; 1 mg/kg (IP), female", "result": 2}, {"measurement": "Number of rats showing abnormal behavior: Repetitive jaw chewing", "setting": "adult rats; 1 mg/kg (IP), female", "result": 4}, {"measurement": "% of rats showing abnormal behavior: Abnormal body position lying on side", "setting": "adult rats; 10 mg/kg (IP), male", "result": 13, "unit": "%"}, {"measurement": "% of rats showing abnormal behavior: Ataxia", "setting": "adult rats; 10 mg/kg (IP), male", "result": 38, "unit": "%"}, {"measurement": "% of rats showing abnormal behavior: Clenched paws", "setting": "adult rats; 10 mg/kg (IP), male", "result": 50, "unit": "%"}, {"measurement": "% of rats showing abnormal behavior: Decreased activity", "setting": "adult rats; 10 mg/kg (IP), male", "result": 100, "unit": "%"}, {"measurement": "% of rats showing abnormal behavior: Increased salivation", "setting": "adult rats; 10 mg/kg (IP), male", "result": 50, "unit": "%"}, {"measurement": "% of rats showing abnormal behavior: Repetitive jaw chewing", "setting": "adult rats; 10 mg/kg (IP), male", "result": 38, "unit": "%"}, {"measurement": "Number of rats showing abnormal behavior: Abnormal body position lying on side", "setting": "adult rats; 10 mg/kg (IP), male", "result": 1}, {"measurement": "Number of rats showing abnormal behavior: Ataxia", "setting": "adult rats; 10 mg/kg (IP), male", "result": 3}, {"measurement": "Number of rats showing abnormal behavior: Clenched paws", "setting": "adult rats; 10 mg/kg (IP), male", "result": 5}, {"measurement": "Number of rats showing abnormal behavior: Decreased activity", "setting": "adult rats; 10 mg/kg (IP), male", "result": 4}, {"measurement": "Number of rats showing abnormal behavior: Increased salivation", "setting": "adult rats; 10 mg/kg (IP), male", "result": 5}, {"measurement": "Number of rats showing abnormal behavior: Repetitive jaw chewing", "setting": "adult rats; 10 mg/kg (IP), male", "result": 3}, {"measurement": "abnormal behaviors", "setting": "adult rats; male and female rats, 1 or 10 mg/kg (IP)", "result": "produced abnormal behaviors including ataxia and decreased activity"}]}, {"compound": "O=C(O)[C@@H]1C[C@H](CP(=O)(O)O)CCN1", "note": "(racemic) [selfotel]", "values": [{"measurement": "adverse effects in stroke patients", "setting": "ischemic stroke patients; 1 mg/kg", "result": "showed hallucinations, paranoia, agitation, confusion, and delirium"}, {"measurement": "% of subjects showing abnormal behavior: Agitation", "setting": "ischemic stroke patients; [2]", "result": 36, "unit": "%"}, {"measurement": "% of subjects showing abnormal behavior: Confusion", "setting": "ischemic stroke patients; [2]", "result": 16, "unit": "%"}, {"measurement": "% of subjects showing abnormal behavior: Hallucination", "setting": "ischemic stroke patients; [2]", "result": 21, "unit": "%"}, {"measurement": "% of subjects showing abnormal behavior: Stupor", "setting": "ischemic stroke patients; [2]", "result": 4.3, "unit": "%"}, {"measurement": "Number of subjects showing abnormal behavior: Agitation", "setting": "ischemic stroke patients; [2]", "result": 101}, {"measurement": "Number of subjects showing abnormal behavior: Confusion", "setting": "ischemic stroke patients; [2]", "result": 46}, {"measurement": "Number of subjects showing abnormal behavior: Hallucination", "setting": "ischemic stroke patients; [2]", "result": 59}, {"measurement": "Number of subjects showing abnormal behavior: Stupor", "setting": "ischemic stroke patients; [2]", "result": 12}, {"measurement": "Subjects showing abnormal behavior: Delirium (yes/no)", "setting": "ischemic stroke patients; [2]", "result": "yes"}, {"measurement": "Subjects showing abnormal behavior: Paranoia (yes/no)", "setting": "ischemic stroke patients; [2]", "result": "yes"}, {"measurement": "psychotic symptoms", "setting": "ischemic stroke patients; some of 281 ischemic stroke patients", "result": "revealed psychotic symptoms such as hallucination, paranoia, and delirium"}]}, {"compound": "CCc1cccc(N(C)C(N)=Nc2cccc3ccccc23)c1", "note": "[aptiganel]", "values": [{"measurement": "Drug-induced side effect: Agitation", "setting": "healthy volunteers; Phase 1, 94 healthy volunteers", "result": "yes"}, {"measurement": "Drug-induced side effect: Catatonia", "setting": "healthy volunteers; Phase 1, 94 healthy volunteers", "result": "yes"}, {"measurement": "Drug-induced side effect: Hallucination", "setting": "healthy volunteers; Phase 1, 94 healthy volunteers", "result": "yes"}, {"measurement": "Drug-induced side effect: Paranoia", "setting": "healthy volunteers; Phase 1, 94 healthy volunteers", "result": "yes"}, {"measurement": "side effects / psychotic symptoms in healthy humans", "setting": "healthy volunteers; healthy volunteers (phase 1 study for 94)", "result": "caused hallucinations, paranoia, catatonia, euphoria, disinhibition, and psychomotor retardation; also recorded: psychotic symptoms such as hallucinations, paranoia, and catatonia"}]}]}
